Each structure is given as a SMILES string.

In the first test the test system is bioluminescent sensor strain Escherichia coli MT102 (pSB403). The test is described as follows: Biosensor assay: quorum sensing inhibition, bioluminescence of the sensor strain. The format is cell-based. To be noted: 3oxo-C6-HSL 100 nM; bioluminescence after 4 hours at 30° C. On the procedure: Quorum sensing inhibition of the compounds was investigated with the aid of the bioluminescent sensor strain Escherichia coli MT102 (pSB403) (Winson et al., FEMS Microbiol. Lett. 163:185-92, 1998). Plasmid pSB403 contains the Photobacterium fischeri luxR gene together with the […] promoter region as a transcriptional fusion to the bioluminescence genes luxCDABE of Photorhabdus luminescence.
Inhibitory studies were conducted in a microtitre dish assay as follows: the E. coli sensor strain grown over night in LB medium (Sambrook et al., Molecular Cloning: A Laboratory Manual. 2nd Edn. Cold Spring Harbor Laboratory, New York, 1989) was diluted 1:4 and grown for another 1 hour at 30° C. After addition of 3oxo-C6-HSL (final concentration 100 nM) 100 μl of an exponential culture suspension were filled in the wells of a FluoroNunc Polysorp microtitre dish. The test compounds were added to the culture in different concentrations and bioluminescence was measured after 4 hours of incubation at 30° C. with a Lamda Fluoro 320 Plus reader (Bio-Tek Instruments). Inhibitor-mediated reduction of light emission was correlated with the value obtained without addition of the test compounds. IC50 values (concentration of inhibitor required for 50% inhibition of the signal compared to the signal without inhibitor) were determined by using a fitting function after drawing a graph of the activities of eight different inhibitor concentrations.
In general, IC50 refers to the concentration at which inhibition is half-maximal. Higher therefore signals lower potency. Molecule `CCn1nc(C)c(Br)c1C(=O)NNC(=O)c1ccc(Cl)s1` [Compound 73, 4-Bromo-2-ethyl-5-methyl-2H-pyrazole-3-carboxylic acid N′-(5-chloro-thiophene-2-carbonyl)-hydrazide] showed an IC50 of 1 to 50 µM.
`CCn1nc(C)c(Br)c1C(=O)NNC(=O)c1ccc(Cl)s1` [Compound 67, 4-Bromo-2ethyl-5-methyl-2H-pyrazole-3-carboxylic acid N′-(5-chloro-thiophene-2-carbonyl)-hydrazide]: the IC50 was > 100 µM.

Still in this test, the particulars now being: Escherichia coli, 4 h, 3oxo-C6-HSL 100 nM; bioluminescence after 4 hours at 30° C.
As for `Cn1nc(-c2ccc(Cl)cc2)cc1NC(=O)CCCCCBr` [Compound 16, 6-Bromo-hexanoic acid [5-(4chloro-phenyl)-2-methyl-2H-pyrazol-3-yl]-amide], the half-inhibitory concentration (IC50) lay within 1 to 50 µM.
`CCCCCCC(=O)CC(=O)Nc1nc(SC)sc1C(C)=O` [Compound 129, 3-Oxo-nonanoic acid (5-acetyl-2-methylsulfanyl-thiazol-4-yl)-amide]: the IC50 is > 100 µM.
Still for that read-out and setting: then `COc1ccc(NC(=O)c2cccnc2SC)cn1` [Compound 8, N-(6-Methoxy-pyridin-3-yl)-2-methylsulfanyl-nicotinamide], with > 100 µM; and `O=C(NNC(=O)c1sc2ccccc2c1Cl)c1ccco1` [Compound 41, Furan-2-carboxylic acid N′-(3-chloro-benzo[b]thiophene-2-carbonyl)-hydrazide], with 1 to 50 µM.
Consider `O=C(NNC(=O)c1ccc(Br)s1)Nc1ccccc1CCl` [Compound 107, 1-(5-Bromo-thiophene-2-carbonyl)-4-(2-chloromethyl-phenyl)-semicarbazide], for which the IC50 lay in the range of 1 to 50 µM.
`Cc1csc(C(=O)NNC(=O)c2cccs2)c1Cl` [Compound 43, Thiophene-2-carboxylic acid N′-(3-chloro-4-methyl-thiophene-2-carbonyl)-hydrazide] displayed an IC50 of 1 to 50 µM.
Regarding `CCCCCCCCCCCC(=O)NNC(=O)c1cccs1` [Compound 86, Thiophene-2-carboxylic acid N′-dodecanoyl-hydrazide], the IC50 lay within 1 to 50 µM.
`O=C(CCCCCBr)NNC(=O)c1cccs1` [Compound 78, Thiophene-2-carboxylic acid N′-(6-bromo-hexanoyl)-hydrazide] gave an IC50 of 1 to 50 µM.
Same read-out and setting: then `COc1ccc(NC(=O)c2sccc2Br)cn1` [Compound 2, 3-Bromo-thiophene-2-carboxylic acid (6-methoxy-pyridin-3-yl)-amide], with 1 to 50 µM; and `COC(=O)c1scc(C)c1NC(=O)c1cccs1` [Compound 5, 4-Methyl-3-[(thiophene-2-carbonyl)-amino]-thiophene-2-carboxylic acid methyl ester], with > 100 µM.
Molecule `Cc1ccc(C(=O)NNC(=O)CCC2CCCC2)s1` [Compound 87, 5-Methyl-thiophene-2-carboxylic acid N′-(3-cyclopentyl-propionyl)-hydrazide] gave a half-maximal inhibitory concentration (IC50) of 1 to 50 µM.
Consider `CCCCCCCC(=O)NNC(=O)c1ccnc(Cl)c1` [Compound 93, 2-Chloro-isonicotinic acid N′-octanoyl-hydrazide], for which the IC50 lay within 1 to 50 µM.
On to `CCCCCCC(=O)Nc1cc(-c2cccs2)nn1C` [Compound 19, Heptanoic acid (2-methyl-5-thiophen-2-yl-2H-pyrazol-3-yl)-amide], for which the IC50 is 1 to 50 µM.
In turn, `CCCCCCCC(=O)NNC(=O)c1cccnc1Cl` [Compound 94, 2-Chloro-nicotinic acid N′-octanoyl-hydrazide] registered an IC50 of 1 to 50 µM.
Molecule `CCCCCCC(=O)Nc1ccnn1C` [Compound 24, Heptanoic acid (2-methyl-2H-pyrazol-3-yl)-amide] displayed an IC50 of 1 to 50 µM.
Still for that read-out and setting: in the case of `CCCC(=O)NNC(=O)c1ccc(Br)s1` [Compound 77, 5-Bromo-thiophene-2-carboxylic acid N′-butyryl-hydrazide] it was 1 to 50 µM; in that of `Cn1nc(C(C)(C)C)cc1C(=O)NNC(=O)c1cccs1` [Compound 70, Thiophene-2-carboxylic acid N′-(5-tert-butyl-2-methyl-2H-pyrazole-3-carbonyl)-hydrazide], > 100 µM.
Regarding `O=C(NNC(=O)c1ccc(Br)s1)Nc1c(F)cccc1F` [Compound 110, 1-(5-Bromo-thiophene-2-carbonyl)-4-(2,6-difluoro-phenyl)-semicarbazide], the IC50 is > 100 µM.
Still for that read-out and setting: then `O=C(NNC(=O)c1sccc1Cl)c1cccs1` [Compound 51, 3-Chloro-thiophene-2-carboxylic acid N′-(thiophene-2-carbonyl)-hydrazide], with 50 to 100 µM; and `O=C(NNC(=O)c1sc2ccccc2c1Cl)c1ccc(Br)s1` [Compound 62, 3-Chloro-benzo[b]thiophene-2-carboxylic acid N′-(5-bromo-thiophene-2-carbonyl)-hydrazide], with 50 to 100 µM.
Same read-out and setting: in the case of `Cc1cc(C(=O)Nc2ccnn2C)n(C(C)(C)C)n1` [Compound 13, 2-tert-Butyl-5-methyl-2H-pyrazole-3-carboxylic acid (2-methyl-2H-pyrazol-3-yl)-amide] it was > 100 µM.
`CCCCCCCCCC(=O)CC(=O)Nc1ccnn1CC` [Compound 117, 3-Oxo-dodecanoic acid (2-ethyl-2H-pyrazol-3-yl)-amide]: the IC50 is > 100 µM.
For the molecule `Cc1csc(C(=O)NNC(=O)c2ccc(C(F)(F)F)cc2)c1` [Compound 28, 4-Trifluoromethyl-benzoic acid N′-(4-methyl-thiophene-2-carbonyl)-hydrazide], the IC50 lay in the range of 50 to 100 µM.
As to `CCCC(=O)NNC(=O)c1ccc(C)s1` [Compound 76, 5-Methyl-thiophene-2-carboxylic acid N′-butyryl-hydrazide], the IC50 lay in the range of 50 to 100 µM.
Regarding `COc1c(C(=O)NNC(=O)c2ccco2)csc1Cl` [Compound 38, Furan-2-carboxylic acid N′-(5-chloro-4-methoxy-thiophene-3-carbonyl)-hydrazide], the IC50 was 1 to 50 µM.
The same measure, in the same setting: in the case of `O=C(NNC(=O)c1sccc1Br)c1cccs1` [Compound 55, Thiophene-2-carboxylic acid N′-(3-bromo-thiophene-2-carbonyl)-hydrazide] it was 1 to 50 µM; in that of `O=C(NNC(=O)c1cnn(-c2ccc(Cl)cc2)c1C(F)(F)F)c1cccs1` [Compound 34, Thio-phene-2-carboxylic acid N′-[1-(4-chloro-phenyl)-5-trifluoromethyl-1H-pyrazole-4-carbonyl]-hydrazide], 50 to 100 µM.
Consider `Cn1nc(-c2cccs2)cc1NC(=O)c1cccc(Cl)c1` [Compound 15, 3-Chloro-N-(2-methyl-5-thiophen-2-yl-2H-pyrazol-3-yl)-benzamide], for which the IC50 is 1 to 50 µM.
For the molecule `Cc1cc(C(=O)NNc2nccc(C(F)(F)F)n2)n(C)n1` [Compound 26, 2,5-Dimethyl-2H-pyrazole-3-carboxylic acid N′-(4-trifluoromethyl-pyrimidin-2-yl)-hydrazide], the 50% inhibitory concentration (IC50) fell in the range of 1 to 50 µM.
On the same count and under the same terms, then `CCOc1ccsc1C(=O)NNC(=O)c1cccs1` [Compound 45, Thiophene-2-carboxylic acid N′-(3-ethoxy-thiophene-2-carbonyl)-hydrazide], with 1 to 50 µM; and `O=C(NNC(=O)c1sc2ccccc2c1Cl)c1sccc1Br` [Compound 61, 3-Chloro-benzo[b]thiophene-2-carboxylic acid N′-(3-bromo-thiophene-2-carbonyl)-hydrazide], with 50 to 100 µM; and `COC(=O)c1ccsc1NC(=O)c1cnc(Cl)nc1C(F)(F)F` [Compound 4, 2-[(2-Chloro-4-trifluoro-methyl-pyrimidine-5-carbonyl)-amino]-thiophene-3-carboxylic acid methyl ester], with > 100 µM.
With `CCCCCCCC(=O)NNC(=O)c1c(C)noc1C` [Compound 91, 3,5-Dimethyl-isoxazole-4carboxylic acid N′-octanoyl-hydrazide], the IC50 lay within 1 to 50 µM.
`Cc1ccc(C(=O)NNC(=O)CCCCCBr)s1` [Compound 82, 5-Methyl-thiophene-2-carboxylic acid N′-(6-bromohexanoyl)-hydrazide] registered an IC50 of 1 to 50 µM.
Molecule `CCn1nc(C)c(Br)c1C(=O)NNC(=O)c1ccc(Br)s1` [Compound 71, 4Bromo-2-ethyl-5-methyl-2H-pyrazole-3-carboxylic acid N′-(5-bromo-thiophene-2-carbonyl)-hydrazide] came in with an IC50 of 1 to 50 µM.
As for `Cc1ccc(C(=O)NNC(=O)c2sccc2Br)s1` [Compound 57, 3-Bromo-thiophene-2-carboxylic acid N′-(5-methyl-thiophene-2-carbonyl)-hydrazide], the half-inhibitory concentration (IC50) was in the range of 1 to 50 µM.
As to `CCCCCCCCCC(=O)CC(=O)Nc1cc(C)no1` [Compound 133, 3-Oxo-dodecanoic acid (3-methyl-isoxazol-5-yl)-amide], the IC50 was > 100 µM.
For `COC(=O)CCCC(=O)NNC(=O)c1ccc(C)s1` [Compound 88], the IC50 was > 100 µM.
Turning to `CCCCCCC(=O)CC(=O)Nc1oc(C)nc1C#N` [Compound 135, 3-Oxo-nonanoic acid (4cyano-2-methyl-oxazol-5-yl)-amide], the IC50 was in the range of 50 to 100 µM.
On the same count and under the same terms, in the case of `O=C(NNC(=O)c1sccc1Cl)c1ccc(Cl)s1` [Compound 58, 3-Chloro-thiophene-2-carboxylic acid N′-(5-chloro-thiophene-2-carbonyl)-hydrazide] it was 50 to 100 µM.

Values taken from patent US20090076012A1, “Modulation of pathogenicity” (priority 2002, published 2009).
